Where “and” joins values, the source holds several entries; their conditions need not be identical. Equal entries are not always repeated. Inconclusive results and toxic doses are left out. Peptide text beside a SMILES is read from it. * marks the point of attachment. Trt = c1ccc(C(c2ccccc2)(c2ccccc2)*)cc1; Boc = CC(C)(C)OC(=O)*
Tested on: L1210 leukemia ip in BDF1 mice, survival T/C
Assay: NCI In Vivo Anticancer Drug Screen. Data for tumor model L1210 Leukemia (intraperitoneal) in B6D2F1 (BDF1) mice
Settings: endpoint: mean survival time, higher = longer survival
In short: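 Each compound was tested against a transplantable tumor grown in mice. The endpoint was survival, with treated animals benchmarked against vehicle controls as a simple ratio.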

[1] = dose: 100.0 mg/kg/injection, schedule: Q01DX009 (ip), vehicle: Klucel (hydroxypropylcellulose) (HPC)
[2] = dose: 200.0 mg/kg/injection, schedule: Q01DX009 (ip), vehicle: Klucel (hydroxypropylcellulose) (HPC)
[3] = dose: 400.0 mg/kg/injection, schedule: Q01DX009 (ip), vehicle: Klucel (hydroxypropylcellulose) (HPC)
[4] = dose: 100.0 mg/kg/injection, schedule: Q01DX001 (ip), vehicle: other
[5] = dose: 200.0 mg/kg/injection, schedule: Q01DX001 (ip), vehicle: other
[6] = dose: 100.0 mg/kg/injection, schedule: Q01DX001 (ip), vehicle: saline
[7] = dose: 200.0 mg/kg/injection, schedule: Q01DX001 (ip), vehicle: saline
[8] = dose: 400.0 mg/kg/injection, schedule: Q01DX001 (ip), vehicle: saline
[9] = dose: 25.0 mg/kg/injection, schedule: Q01DX009 (ip), vehicle: saline
[10] = dose: 50.0 mg/kg/injection, schedule: Q01DX009 (ip), vehicle: saline
[11] = dose: 50.0 mg/kg/injection, schedule: Q04DX002 (ip), vehicle: Klucel (hydroxypropylcellulose) (HPC)
[12] = dose: 100.0 mg/kg/injection, schedule: Q04DX002 (ip), vehicle: Klucel (hydroxypropylcellulose) (HPC)
[13] = dose: 100.0 mg/kg/injection, schedule: Q01DX009 (ip), vehicle: saline with Tween-80
[14] = dose: 100.0 mg/kg/injection, schedule: Q04DX002 (ip), vehicle: saline
[15] = dose: 200.0 mg/kg/injection, schedule: Q01DX009 (ip), vehicle: saline with Tween-80
[16] = dose: 200.0 mg/kg/injection, schedule: Q04DX002 (ip), vehicle: saline
[17] = dose: 200.0 mg/kg/injection, schedule: Q04DX002 (ip), vehicle: Klucel (hydroxypropylcellulose) (HPC)
[18] = dose: 400.0 mg/kg/injection, schedule: Q04DX002 (ip), vehicle: Klucel (hydroxypropylcellulose) (HPC)

With C=C(C)C1Cc2c(ccc3c(=O)c4c(oc23)C(O)Oc2cc(OC)c(OC)cc2-4)O1 (stereo not given) the T/C [1] was 93 % of control, the T/C [2] was 95 % of control and the T/C [3] was 97 % of control.
With COc1ccc(CCC2(C=O)CNCN2)cc1 (stereo not given) the T/C [4] was 98 % of control and the T/C [5] was 93 % of control.
O=c1c2cn[nH]c2nc2ccccn12 was tested, and the T/C [6] was 96 % of control, the T/C [7] was 94 % of control and the T/C [8] was 94 % of control.
In the case of CNCCCN(C)CCCNC, the T/C [9] is reported as 100 % of control, the T/C (dose: 25.0 mg/kg/injection, schedule: Q04DX003 (ip), vehicle: saline) is reported as 96 % of control and the T/C [10] is reported as 101 % of control. For the same compound, the T/C (dose: 50.0 mg/kg/injection, schedule: Q04DX003 (ip), vehicle: saline) was 104 % of control, the T/C (dose: 100.0 mg/kg/injection, schedule: Q01DX009 (ip), vehicle: saline) was 94 % of control and the T/C (dose: 100.0 mg/kg/injection, schedule: Q04DX003 (ip), vehicle: saline) was 99 % of control and 102 % of control.
For CC(C)(C)c1ccc(CBr)cc1, the T/C (dose: 25.0 mg/kg/injection, schedule: Q04DX002 (ip), vehicle: Klucel (hydroxypropylcellulose) (HPC)) was 102 % of control, the T/C [11] was 94 % of control and the T/C [12] was 94 % of control.
In the case of CCCCCCCCCCCCCCCCNC(=S)N/N=C(/C=C/c1ccccc1)C(=O)O, the T/C (dose: 15.0 mg/kg/injection, schedule: Q01DX Z (ip), vehicle: carboxymethylcellulose (CMC)) is reported as 101 % of control, the T/C (dose: 30.0 mg/kg/injection, schedule: Q01DX Z (ip), vehicle: carboxymethylcellulose (CMC)) is reported as 108 % of control and the T/C (dose: 30.0 mg/kg/injection, schedule: Q01DX Z (oral), vehicle: carboxymethylcellulose (CMC)) is reported as 112 % of control. For the same compound, the T/C (dose: 60.0 mg/kg/injection, schedule: Q01DX Z (ip), vehicle: carboxymethylcellulose (CMC)) was 113 % of control, the T/C (dose: 60.0 mg/kg/injection, schedule: Q01DX Z (oral), vehicle: carboxymethylcellulose (CMC)) was 111 % of control and the T/C (dose: 120.0 mg/kg/injection, schedule: Q01DX Z (oral), vehicle: carboxymethylcellulose (CMC)) was 100 % of control and 101 % of control. The T/C (dose: 240.0 mg/kg/injection, schedule: Q01DX Z (oral), vehicle: carboxymethylcellulose (CMC)) was 108 % of control and 109 % of control, the T/C (dose: 480.0 mg/kg/injection, schedule: Q01DX Z (oral), vehicle: carboxymethylcellulose (CMC)) was 109 % of control and the T/C (dose: 960.0 mg/kg/injection, schedule: Q01DX Z (oral), vehicle: carboxymethylcellulose (CMC)) was 113 % of control.
In the case of CCOC(=O)OCc1ccccc1, the T/C (dose: 100.0 mg/kg/injection, schedule: Q04DX002 (ip), vehicle: saline with Tween-80) is reported as 94 % of control, the T/C (dose: 200.0 mg/kg/injection, schedule: Q04DX002 (ip), vehicle: saline with Tween-80) is reported as 109 % of control and the T/C (dose: 400.0 mg/kg/injection, schedule: Q04DX002 (ip), vehicle: saline with Tween-80) is reported as 102 % of control.
For CCCCCCCCCCOP(=S)(N1CC1)N1CC1, the T/C (dose: 2.5 mg/kg/injection, schedule: Q01DX Z (ip), vehicle: carboxymethylcellulose (CMC)) was 107 % of control, the T/C (dose: 5.0 mg/kg/injection, schedule: Q01DX Z (ip), vehicle: carboxymethylcellulose (CMC)) was 118 % of control and the T/C (dose: 20.0 mg/kg/injection, schedule: Q01DX Z (ip), vehicle: carboxymethylcellulose (CMC)) was 232 % of control and 260 % of control. For the same compound, the T/C (dose: 40.0 mg/kg/injection, schedule: Q01DX Z (ip), vehicle: carboxymethylcellulose (CMC)) was 150 % of control.
In the case of O=[N+]([O-])c1cccc(P(=O)(O)O)c1, the T/C (dose: 50.0 mg/kg/injection, schedule: Q01DX001 (ip), vehicle: saline) is reported as 115 % of control, the T/C [6] is reported as 107 % of control and the T/C [7] is reported as 97 % of control. The T/C [8] was 103 % of control.
With COc1ccc(C(=O)NC(=S)Nc2cccc([N+](=O)[O-])c2)cc1 the T/C [13] was 95 % of control and 88 % of control, the T/C [14] was 88 % of control and the T/C [15] was 88 % of control and 89 % of control. For the same compound, the T/C [16] was 91 % of control, the T/C (dose: 400.0 mg/kg/injection, schedule: Q01DX009 (ip), vehicle: saline with Tween-80) was 103 % of control and the T/C (dose: 400.0 mg/kg/injection, schedule: Q04DX002 (ip), vehicle: saline) was 98 % of control.
In the case of CN(C)Cc1ncccc1OC(=O)N(c1ccccc1)c1ccccc1, the T/C (dose: 12.5 mg/kg/injection, schedule: Q01DX009 (ip), vehicle: saline) is reported as 97 % of control, the T/C [9] is reported as 97 % of control and the T/C [10] is reported as 100 % of control.
In the case of CC(=O)C(C(C)=O)C1C=CCC1 (stereo not given), the T/C (dose: 100.0 mg/kg/injection, schedule: Q04DX003 (ip), vehicle: saline with Tween-80) is reported as 96 % of control, the T/C (dose: 200.0 mg/kg/injection, schedule: Q04DX003 (ip), vehicle: saline with Tween-80) is reported as 107 % of control and the T/C (dose: 400.0 mg/kg/injection, schedule: Q04DX003 (ip), vehicle: saline with Tween-80) is reported as 89 % of control.
O=C(CNC(=O)NCc1ccccc1)N/N=C/c1ccccc1O was tested, and the T/C (dose: 50.0 mg/kg/injection, schedule: Q01DX009 (ip), vehicle: saline with Tween-80) was 89 % of control, the T/C [13] was 103 % of control and the T/C [15] was 97 % of control.
With CC(=O)Nc1ccc2c([N+](=O)[O-])cccc2c1-c1c(NC(C)=O)ccc2c([N+](=O)[O-])cccc12 the T/C [1] was 101 % of control, the T/C (dose: 100.0 mg/kg/injection, schedule: Q04DX003 (ip), vehicle: Klucel (hydroxypropylcellulose) (HPC)) was 88 % of control and the T/C [2] was 105 % of control. For the same compound, the T/C (dose: 200.0 mg/kg/injection, schedule: Q04DX003 (ip), vehicle: Klucel (hydroxypropylcellulose) (HPC)) was 97 % of control, the T/C [3] was 98 % of control and the T/C (dose: 400.0 mg/kg/injection, schedule: Q04DX003 (ip), vehicle: Klucel (hydroxypropylcellulose) (HPC)) was 92 % of control.
CC(C)(C)OC(=O)NC(CSC(c1ccccc1)(c1ccccc1)c1ccccc1)C(=O)NC(Cc1ccccc1)C(=O)NCC(=O)O (stereo not drawn) (Boc-Cys(Trt)-Phe-Gly-OH; configuration not given here) was tested, and the T/C (dose: 75.0 mg/kg/injection, schedule: Q01DX001 (ip), vehicle: saline) was 93 % of control and the T/C (dose: 150.0 mg/kg/injection, schedule: Q01DX001 (ip), vehicle: saline) was 91 % of control.
With S=P(c1ccccc1)(c1ccccc1)c1ccccc1 the T/C (dose: 50.0 mg/kg/injection, schedule: Q04DX002 (ip), vehicle: saline) was 96 % of control, the T/C [14] was 93 % of control and the T/C [16] was 96 % of control.
For N#Cc1cccc(C(Br)S(=O)(=O)c2ccccc2)c1 (stereo not given), the T/C [12] was 116 % of control, the T/C [17] was 111 % of control and the T/C [18] was 90 % of control.
In the case of CCCCCCCCCCCCCCCCCC(=O)N/N=C/C(=C\c1ccccc1)CCCCCC, the T/C [1] is reported as 90 % of control, the T/C [2] is reported as 98 % of control and the T/C [3] is reported as 93 % of control.
With COC(=O)C(C(C)C)N(C)C(=O)OC(C)(C)C (stereo not given) the T/C [4] was 104 % of control, the T/C [5] was 102 % of control and the T/C (dose: 400.0 mg/kg/injection, schedule: Q01DX001 (ip), vehicle: other) was 100 % of control.
For CC1(C)OCC(C2OC(C)(C)OC2C2COC(C)(C)O2)O1 (stereo not given), the T/C (dose: 87.5 mg/kg/injection, schedule: Q04DX002 (ip), vehicle: saline) was 100 % of control, the T/C (dose: 175.0 mg/kg/injection, schedule: Q04DX002 (ip), vehicle: saline) was 97 % of control and the T/C (dose: 350.0 mg/kg/injection, schedule: Q04DX002 (ip), vehicle: saline) was 93 % of control.
In the case of C=C(C)C(=O)OC (tested in a mixture with another compound), the T/C [11] is reported as 107 % of control, the T/C (dose: 75.0 mg/kg/injection, schedule: Q01DX001 (ip), vehicle: other) is reported as 96 % of control and the T/C [12] is reported as 101 % of control. For the same compound, the T/C (dose: 150.0 mg/kg/injection, schedule: Q01DX001 (ip), vehicle: other) was 94 % of control, the T/C [17] was 93 % of control and the T/C (dose: 300.0 mg/kg/injection, schedule: Q01DX001 (ip), vehicle: other) was 91 % of control. For the same compound, the T/C [18] was 90 % of control.
In the case of CC(C)CCCC(C)C1CCC2C3CCC4CC(I)CCC4(C)C3CCC12C (stereo not given), the T/C (dose: 100.0 mg/kg/injection, schedule: Q01DX001 (ip), vehicle: saline with Tween-80) is reported as 93 % of control, the T/C (dose: 200.0 mg/kg/injection, schedule: Q01DX001 (ip), vehicle: saline with Tween-80) is reported as 95 % of control and the T/C (dose: 400.0 mg/kg/injection, schedule: Q01DX001 (ip), vehicle: saline with Tween-80) is reported as 90 % of control.
